The results in this text go back to patent publication US10906929B2, “Phosphoramidate nucleoside derivatives as anticancer agents” (NuCana plc, priority 2016, dated 2021).

Test [1] relates to Z-138 Mantle cell lymphoma. Description: In vitro viability assay, CellTiterGlo. It counts as cell-based. Conditions: for EC50: Homo sapiens, Z-138, 72 h, read-out: EC50 (μM) Ab; for Top Inhibition (%): Z-138, CellTiterGlo, 72 h. As to the method: (§1) In vitro viability assay was performed to assess the effects of compounds on cell viability in selected cell lines over 72 h using the CellTiterGlo (CTG, Promega-G7573) assay. The tests were performed in duplicates with treatment of compounds at 9 points, 3.16 folds titration in 96 well plates over ˜72 h. The compound starting concentrations were […]. Cell viability assay using CellTiterGlo in 96-well plate were performed. Compounds were dissolved to 40 mM with thawed 100% DMSO. Compounds were serially diluted at 3.16-fold in thawed DMSO, and warmed to 37° C. before being dissolved in media (2 μl+200 μl). After compounds were dissolved in media, media containing compounds were warmed to 37° C. in incubator and then compounds in media were added to cell plates (50 μl+50 μl) in duplicates. The compounds' final concentrations were from 198 μM to 19.9 nM. Solubility of all compounds was checked and recorded again, then the plates were transferred to CO2 tissue culture incubator immediately and incubated for 3 days. DMSO final concentration is 0.5%.

Test [2] relates to RL Non-Hodgkin's lymphoma. The experiment in a line: In vitro viability assay, CellTiterGlo. The test is classed as cell-based. Conditions: 72 h; for Top Inhibition (%): CellTiterGlo; for EC50: Homo sapiens, read-out: EC50 (μM) Ab. The procedure:
as §1
In general terms: In ATP-based viability assays light output follows the ATP content of the culture.

Test [3] deals with HL-60 Promyelocytic leukaemia. Description: In vitro viability assay, CellTiterGlo. The test is classed as cell-based. As to conditions: for Top Inhibition (%): HL-60, CellTiterGlo, 72 h; for EC50: Homo sapiens, HL-60, 72 h, read-out: EC50 (μM) Ab. The procedure:
as §1

In test [4] the test system is HEL92.1.7 Erythroleukaemia. Description: In vitro viability assay, CellTiterGlo. It counts as cell-based. Conditions: for Top Inhibition (%): HEL92.1.7, CellTiterGlo, 72 h; for EC50: Homo sapiens, HEL 92.1.7, 72 h, read-out: EC50 (μM) Ab. The procedure: as §1
The test system of test [5] is KG-1 Acute myelogenous leukaemia. The experiment in a line: In vitro viability assay, CellTiterGlo. It counts as cell-based. As to conditions: for EC50: Homo sapiens, KG-1, 72 h, read-out: EC50 (μM) Ab; for Top Inhibition (%): KG-1, CellTiterGlo, 72 h. The procedure: as §1
Test [6] has as its system MCF-7 Mammary epithelial adenocarcinoma. The experiment in a line: In vitro viability assay, CellTiterGlo. The test is classed as cell-based, human. Conditions: for EC50: Homo sapiens, MCF7, 72 h, read-out: EC50 (μM) Ab; for Top Inhibition (%): MCF-7, CellTiterGlo, 72 h. The procedure:
as §1

For test [7], the system named is NB4. Description: In vitro cytotoxicity, MTS assay. It counts as cell-based. Conditions: Homo sapiens, NB-4, 72 h, read-out: Inhibitory concentration (IC50) NB4. As to the method:
(§2) Cladribine phosphoramidate derivatives were evaluated against six leukaemic cell lines (KG1, U937, K562, NB4R2, NB4 and HL-60) in vitro. Inhibitory concentration (IC50) at which 50% of the cells were no longer viable (calculated using MTS assay) was determined. Cells were treated with Cladribine and its 3′-phosphoramidate derivatives at concentrations between 100 μM and 0.02 μM by serial dilutions and incubated for 72 h at 37° C., 5% CO2 in a final volume of 90 μL. Twenty microliters of MTS reagent (Promega UK Ltd, Southampton, Hants) was added to the tumour cell cultures and reaction incubated for a further 4 h at 37° C., 5% CO2. The absorbance of the reaction after this time was read by spectrophotometry at 490 nm and the percentage of viable cells calculated relative to untreated control cells in the same assay.
A general note: Tetrazolium assays rely on reduction of a dye to a coloured formazan, in cell work by metabolically active cells.

The test system of test [8] is HL-60. The experiment in a line: In vitro cytotoxicity, MTS assay. As to conditions: Homo sapiens, 72 h, read-out: Inhibitory concentration (IC50) HL-60. The test is classed as cell-based. The procedure:
as §2

The term EC50 denotes the concentration at which the effect is half-maximal. In the case of `C[C@H](NP(=O)(Oc1ccccc1)OC1C[C@H](n2cnc3c(N)nc(Cl)nc32)O[C@@H]1CO)C(=O)OCC(C)(C)C` (stereo partly drawn) [Compound 10, 2-Chloro-2′-deoxyadenosine-3′-[phenyl-(2,2-dimethylpropoxy-L-alaninyl)] phosphate], the 50% effective concentration (EC50) in test [1] came to 0.047 µM; in test [2], 0.15 µM; in test [3], 0.12 µM; in test [4] it was 0.042 µM; in test [5], 0.6 µM; in test [6], 22 µM. Also, the “Top Inhibition (%)” value in test [1] was found to be 100%; in test [2], 89.8%; in test [3] it was 87.7%; in test [4] it was 97.2%; in test [5], 95%; in test [6] it was 99.2%. The IC50 in test [7] is greater than 10000 nM; in test [8] it was 5300 nM.

For `CCCCCOC(=O)[C@H](CC(C)C)NP(=O)(Oc1cccc2ccccc12)OC1C[C@H](n2cnc3c(N)nc(Cl)nc32)O[C@@H]1CO` (stereo partly drawn) [Compound 7, 2-Chloro-2′-deoxyadenosine-3′-[1-naphthyl-(pentoxy-L-leucinyl)] phosphate], the EC50 in test [1] came out at 1.07 µM; in test [2], 0.5 µM; in test [3], 0.27 µM; in test [4], 0.07 µM; in test [5], 1.5 µM; in test [6] it was 5.45 µM. In addition, the “Top Inhibition (%)” value stood at 101% in test [1]; 100% in test [2]; 98% in test [3]; 98.6% in test [4]; 98.8% in test [5]; 103% in test [6].
